Laboratory results from patent publication US10906910B2, “Substituted bicyclic pyrimidine compounds with tubulin and multiple receptor inhibition” (Duquesne University of the Holy Spirit, priority 2014, dated 2021).
Structures can show the parent of a compound that is named as a salt.

Columns and labels:
wild type HeLa cells = experiment: HeLa cytotoxicity, wild type; format: cell-based; details: Homo sapiens
[1] = system: βIII-tubulin overexpressing HeLa cell line; experiment: HeLa cytotoxicity, βIII-tubulin overexpressing; format: cell-based; details: for IC50: Homo sapiens, βIII-tubulin overexpressing HeLa
bovine brain tubulin = experiment: inhibition of tubulin assembly; format: biochemical; details: bovine tubulin
VEGFR2 = VEGFR2 (Homo sapiens, UniProt P35968); experiment: VEGFR2 kinase inhibition, whole-cell assay; format: cell-based; details: read-out: kinase inhibition IC50 [whole-cell assays] VEGFR2
EGFR = EGFR (Homo sapiens, UniProt P00533); experiment: EGFR kinase inhibition, whole-cell assay; format: cell-based; details: read-out: kinase inhibition IC50 [whole-cell assays] EGFR
A431 cells = experiment: A431 cytotoxicity; format: cell-based; details: Homo sapiens, A-431
PDGFRβ = PDGFRβ (Homo sapiens, UniProt P09619); experiment: PDGFRβ kinase inhibition, whole-cell assay; format: cell-based; details: for IC50: whole-cell assay, read-out: kinase inhibition IC50 [whole-cell assays] PDGFRβ
[2] = system: 4T1-Luc2GFP triple negative mouse breast cancer cells; format: in vivo; details: mouse, in vivo
Procedure: BALB/c mice were implanted with 7.5 k 4T1-Luc2GFP triple negative mouse breast cancer cells orthotopically into mammary fat pad 4. 7 days after implantation, tumors are visible in over 90% of animals. At day 8 and continuing twice weekly until the experiment end, the MTD of compound 4.HCl (i.e. the hydrochloride salt of compound 4 shown in FIG. 1), determined to be 40 mg/kg, was given IP to tumor-bearing mice; […]; Both drugs were in solvent (5% solutol-15, 5% PharmaSolve in normal saline) and a solvent control group was included in addition to sham injected (untreated) group. Primary tumor volume and animal weights was assessed by calipers throughout the experiment.
On day 40, all animals were injected IV with fluorescently labeled dextran as a marker of vasculature. Tumors were excised and weighed; lungs were excised and evaluated for metastases. […]; large micro metastases (>10 cells with no vasculature) and macrometastases (>10 cells with apparent vasculature) were counted. […]

Chain of PDGFRβ (P09619 33-1106, species assumed): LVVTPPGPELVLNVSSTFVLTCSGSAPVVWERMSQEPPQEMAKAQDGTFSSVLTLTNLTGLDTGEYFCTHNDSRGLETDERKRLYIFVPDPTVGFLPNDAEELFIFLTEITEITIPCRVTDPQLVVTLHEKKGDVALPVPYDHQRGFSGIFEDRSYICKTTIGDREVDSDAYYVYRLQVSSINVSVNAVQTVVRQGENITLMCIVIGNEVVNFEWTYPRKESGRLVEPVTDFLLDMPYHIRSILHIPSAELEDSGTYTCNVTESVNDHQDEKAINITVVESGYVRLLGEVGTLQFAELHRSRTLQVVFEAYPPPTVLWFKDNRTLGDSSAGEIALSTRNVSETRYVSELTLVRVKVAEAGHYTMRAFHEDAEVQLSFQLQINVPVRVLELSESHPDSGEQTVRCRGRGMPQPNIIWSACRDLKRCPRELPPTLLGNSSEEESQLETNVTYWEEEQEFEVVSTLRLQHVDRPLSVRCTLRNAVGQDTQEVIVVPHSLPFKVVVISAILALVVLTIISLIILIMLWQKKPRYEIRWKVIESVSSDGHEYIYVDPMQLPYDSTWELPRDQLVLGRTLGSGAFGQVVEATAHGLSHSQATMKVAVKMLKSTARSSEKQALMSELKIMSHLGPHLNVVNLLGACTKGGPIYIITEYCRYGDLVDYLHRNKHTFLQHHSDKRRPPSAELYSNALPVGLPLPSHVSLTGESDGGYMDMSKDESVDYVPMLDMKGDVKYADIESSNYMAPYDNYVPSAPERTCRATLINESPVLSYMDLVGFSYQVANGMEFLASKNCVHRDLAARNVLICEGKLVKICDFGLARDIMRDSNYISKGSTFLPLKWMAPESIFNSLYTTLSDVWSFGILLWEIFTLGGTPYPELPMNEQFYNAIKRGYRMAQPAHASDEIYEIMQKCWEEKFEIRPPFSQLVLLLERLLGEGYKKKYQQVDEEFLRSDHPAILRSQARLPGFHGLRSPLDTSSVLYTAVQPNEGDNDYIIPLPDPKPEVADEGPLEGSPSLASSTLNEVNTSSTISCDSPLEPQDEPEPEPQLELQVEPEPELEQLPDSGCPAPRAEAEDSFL
Chain of EGFR (P00533 25-1210, species assumed): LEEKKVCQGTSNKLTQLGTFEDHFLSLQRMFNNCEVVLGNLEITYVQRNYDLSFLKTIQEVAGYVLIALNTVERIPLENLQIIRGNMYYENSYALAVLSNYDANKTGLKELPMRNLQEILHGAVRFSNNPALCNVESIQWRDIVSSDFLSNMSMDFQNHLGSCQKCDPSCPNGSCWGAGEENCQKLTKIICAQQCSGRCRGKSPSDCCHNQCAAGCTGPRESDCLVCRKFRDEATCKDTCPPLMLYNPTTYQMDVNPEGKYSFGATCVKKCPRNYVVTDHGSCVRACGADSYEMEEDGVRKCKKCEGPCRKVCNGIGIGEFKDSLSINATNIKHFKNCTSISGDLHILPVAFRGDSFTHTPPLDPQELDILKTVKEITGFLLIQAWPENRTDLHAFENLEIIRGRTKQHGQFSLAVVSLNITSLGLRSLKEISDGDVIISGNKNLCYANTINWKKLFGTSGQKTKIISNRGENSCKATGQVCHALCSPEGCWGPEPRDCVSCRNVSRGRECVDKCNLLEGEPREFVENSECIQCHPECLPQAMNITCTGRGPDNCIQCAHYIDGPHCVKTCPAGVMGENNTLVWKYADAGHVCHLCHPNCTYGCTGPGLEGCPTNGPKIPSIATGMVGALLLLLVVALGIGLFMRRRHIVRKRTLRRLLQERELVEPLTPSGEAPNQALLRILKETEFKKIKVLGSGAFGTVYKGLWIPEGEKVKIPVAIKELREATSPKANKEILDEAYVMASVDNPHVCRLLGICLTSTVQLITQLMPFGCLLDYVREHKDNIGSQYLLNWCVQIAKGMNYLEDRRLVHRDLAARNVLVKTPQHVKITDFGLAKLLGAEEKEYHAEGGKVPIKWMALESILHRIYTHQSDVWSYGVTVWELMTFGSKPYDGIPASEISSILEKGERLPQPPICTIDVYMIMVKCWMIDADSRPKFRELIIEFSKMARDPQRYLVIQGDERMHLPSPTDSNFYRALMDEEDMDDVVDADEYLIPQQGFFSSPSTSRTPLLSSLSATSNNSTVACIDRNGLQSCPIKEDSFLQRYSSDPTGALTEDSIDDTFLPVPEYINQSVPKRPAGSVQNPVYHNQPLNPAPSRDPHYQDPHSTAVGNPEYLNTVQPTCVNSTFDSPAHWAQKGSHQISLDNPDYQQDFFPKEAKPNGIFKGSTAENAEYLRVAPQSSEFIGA
Chain of VEGFR2 (P35968 20-1356, species assumed): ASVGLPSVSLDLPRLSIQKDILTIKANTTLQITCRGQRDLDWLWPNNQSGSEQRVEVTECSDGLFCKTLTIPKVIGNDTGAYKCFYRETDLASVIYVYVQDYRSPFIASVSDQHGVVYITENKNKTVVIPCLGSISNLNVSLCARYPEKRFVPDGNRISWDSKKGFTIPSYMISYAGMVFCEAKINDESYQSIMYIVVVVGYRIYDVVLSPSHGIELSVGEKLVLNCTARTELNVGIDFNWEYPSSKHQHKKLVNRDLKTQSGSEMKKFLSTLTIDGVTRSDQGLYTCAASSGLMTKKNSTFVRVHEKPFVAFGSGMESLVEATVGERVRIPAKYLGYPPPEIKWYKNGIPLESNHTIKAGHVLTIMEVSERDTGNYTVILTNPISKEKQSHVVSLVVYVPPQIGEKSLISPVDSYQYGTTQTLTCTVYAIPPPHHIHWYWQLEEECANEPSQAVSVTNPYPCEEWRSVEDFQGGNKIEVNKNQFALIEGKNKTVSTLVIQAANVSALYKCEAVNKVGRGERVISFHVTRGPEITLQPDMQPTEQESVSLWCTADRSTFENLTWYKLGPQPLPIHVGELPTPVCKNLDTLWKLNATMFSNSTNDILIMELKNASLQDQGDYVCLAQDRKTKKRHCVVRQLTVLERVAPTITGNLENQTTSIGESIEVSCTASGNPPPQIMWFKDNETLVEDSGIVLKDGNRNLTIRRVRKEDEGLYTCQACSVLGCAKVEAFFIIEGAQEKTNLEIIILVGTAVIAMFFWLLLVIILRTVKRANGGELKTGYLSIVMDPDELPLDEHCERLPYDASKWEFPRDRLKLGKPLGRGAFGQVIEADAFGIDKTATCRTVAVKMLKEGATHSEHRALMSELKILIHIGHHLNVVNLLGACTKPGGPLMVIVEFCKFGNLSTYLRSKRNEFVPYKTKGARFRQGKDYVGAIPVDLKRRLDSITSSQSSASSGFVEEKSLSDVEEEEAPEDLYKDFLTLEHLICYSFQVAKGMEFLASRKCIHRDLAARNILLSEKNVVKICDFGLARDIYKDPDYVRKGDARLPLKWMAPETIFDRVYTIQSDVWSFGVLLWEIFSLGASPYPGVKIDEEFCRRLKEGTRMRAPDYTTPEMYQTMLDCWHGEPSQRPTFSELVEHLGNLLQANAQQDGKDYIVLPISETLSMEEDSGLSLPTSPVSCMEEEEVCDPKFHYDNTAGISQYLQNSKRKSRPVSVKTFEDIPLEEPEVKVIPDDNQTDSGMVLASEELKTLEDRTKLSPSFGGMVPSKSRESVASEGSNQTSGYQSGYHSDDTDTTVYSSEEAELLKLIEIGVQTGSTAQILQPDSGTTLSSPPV

Row | SMILES | IC50 (wild type HeLa cells) [nM] | IC50 [1] [nM] | melting point [°C] | IC50 (VEGFR2) [nM] | IC50 (EGFR) [nM] | IC50 (A431 cells) [nM] | IC50 (PDGFRβ) [nM] | also measured
1 | CC(=O)O[C@@]12CO[C@@H]1C[C@H](O)[C@@]1(C)C(=O)[C@H](O)C3=C(C)[C@@H](OC(=O)[C@H](O)[C@@H](NC(=O)OC(C)(C)C)c4ccccc4)C[C@@](O)([C@@H](OC(=O)c4ccccc4)[C@H]21)C3(C)C [docetaxel] | 4 ± 2 | 13 ± 4 |  |  |  |  |  | fold less potent in βIII-tubulin overexpressing cell line than in wild type HeLa cells [1]: 3 fold
2 | COc1ccc(Nc2nc(C)nc3c(Cc4ccccc4)cn(C)c23)cc1 (as salt: salt) [Compound 3, 7-Benzyl-N-(4-methoxyphenyl)-2,5-dimethyl-5H-pyrrolo[3,2-d]pyrimidin-4-amine] |  |  | 291 to 292 |  |  |  |  | 
3 | COc1ccc(Nc2nc(C)nc3c(Cc4ccccc4)cn(C)c23)cc1 [Compound 3, 7-Benzyl-N-(4-methoxyphenyl)-2,5-dimethyl-5H-pyrrolo[3,2-d]pyrimidin-4-amine] | 5000 | 5000 |  | 26.7 | 2.6 | 2.3 ± 0.3 | 7.2 ± 0.9 | IC50 (bovine brain tubulin): > 20000 nM; potency against PDGFRβ, in words (PDGFRβ): potencies comparable with DMBI
4 | COc1cccc2c1C(=O)c1c(O)c3c(c(O)c1C2=O)C[C@@](O)(C(=O)CO)C[C@@H]3O[C@H]1C[C@H](N)[C@H](O)[C@H](C)O1 [doxorubicin, reference compound] |  |  |  |  |  | 1.35 |  | animal weight [2]: began to result in weight loss in a few animals
5 | COc1ccc2c(c1)CCCN2c1nc(C)nc2c(Cc3ccccc3)cn(C)c12 [Compound 5, 1-(7-Benzyl-2,5-dimethyl-5H-pyrrolo[3,2-d]pyrimidin-4-yl)-6-methoxy-1,2,3,4-tetrahydroquinoline] | 60 |  | 130 to 132 | 32.9 | 4.9 ± 0.6 |  | 30.2 | 
